System: MCF-7 (breast carcinoma) cell line
Test: MTT cytotoxic assay, MCF-7
Format: cell-based
Conditions: Homo sapiens, MCF7; MTT, 72 h, 3 repetitions; read-out: IC50 ± SD MCF-7
Description: The antiproliferative activity of all the synthesized compounds (8a-8 h) was done by MTT (standard 3-(4,5-dimethylthiazol-yl)-2,5-diphenyl-tetrazolium bromide) assay according to our previous protocols. MCF-7 (breast carcinoma) and SW480 (Colorectal carcinoma) cell lines were choose and purchased from the National Cell Bank of Iran (NCBI, Pasteur Institute, Tehran, Iran). RPMI 1640 culture media with 10% fetal bovine serum (FBS) and 1% penicillin-streptomycin (Gibco, USA) were applied as culture. Trypsin/EDTA 0.5% solution (Gibco/USA) was used to harvest cells and then, the cells were seeded at a density of 1 × 10^4 cells per well in 96-well microplates. […] Three untreated wells were applied as the negative control. After 72 h, the media was changed by 100 µL fresh MTT solution and incubated for 4 h at 37 °C in the incubator to achieve formazan purple crystals. Finally, the media was removed and 150 µL of DMSO was added and incubated at 37 °C in the dark for 10 min to dissolve the crystals. A Microplate ELISA reader was applied to read the absorbance of individual wells at 490 nm. Analysis of the data was obtained by Excel 2016 and Curve Expert 1.4. The data was expressed as the mean ± SD for each analysis. GraphPad Prism software was used to perform one-way ANOVA statistical analyses, followed by Tukey’s multiple comparison test.

Question: With CCCCSc1nc2ccc(Br)cc2c(=O)n1-c1ccccc1 [8a, 6-bromo-2-(butylthio)-3-phenylquinazolin-4(3 H )-one] as the molecule, how does the IC50 read?
Answer: 15.8 ± 1.48 µM

Question: With CCCCCSc1nc2ccc(Br)cc2c(=O)n1-c1ccccc1 [8b, 6-bromo-2-(pentylthio)-3-phenylquinazolin-4(3 H )-one] as the molecule, how does the IC50 read?
Answer: 18.2 ± 2.01 µM

Question: For O=c1c2cc(Br)ccc2nc(SCc2ccccc2)n1-c1ccccc1 [8c, 2-(benzylthio)-6-bromo-3-phenylquinazolin-4(3 H )-one], which IC50 is on record?
Answer: 142 ± 3.95 µM

Question: With Cc1cccc(CSc2nc3ccc(Br)cc3c(=O)n2-c2ccccc2)c1 [8d, 6-bromo-2-((3-methylbenzyl)thio)-3-phenylquinazolin-4(3 H )-one] as the molecule, how does the IC50 read?
Answer: 59.1 ± 3.73 µM

Question: With Cc1ccc(CSc2nc3ccc(Br)cc3c(=O)n2-c2ccccc2)cc1 [8e, 6-bromo-2-((4-methylbenzyl)thio)-3-phenylquinazolin-4(3 H )-one] as the molecule, how does the IC50 read?
Answer: 35.1 ± 3.02 µM

Question: With O=c1c2cc(Br)ccc2nc(SCc2ccc(Cl)cc2)n1-c1ccccc1 [8f, 6-bromo-2-((4-chlorobenzyl)thio)-3-phenylquinazolin-4(3 H )-one] as the molecule, how does the IC50 read?
Answer: 52.5 ± 2.92 µM

Question: With O=c1c2cc(Br)ccc2nc(SCc2ccc(Br)cc2)n1-c1ccccc1 [8g, 6-bromo-2-((4-bromobenzyl)thio)-3-phenylquinazolin-4(3 H )-one] as the molecule, how does the IC50 read?
Answer: 62.4 ± 3.32 µM

Question: For O=c1c2cc(Br)ccc2nc(SCc2ccc([N+](=O)[O-])cc2)n1-c1ccccc1 [8h, 6-bromo-2-((4-nitrobenzyl)thio)-3-phenylquinazolin-4(3 H )-one], which IC50 is on record?
Answer: 73.4 ± 3.09 µM

Question: With COc1cccc2c1C(=O)c1c(O)c3c(c(O)c1C2=O)C[C@@](O)(C(=O)CO)C[C@@H]3O[C@H]1C[C@H](N)[C@H](O)[C@H](C)O1 [Doxorubicin, reference compound] as the molecule, how does the IC50 read?
Answer: 2.5 ± 0.64 µM

Same assay, conditions: MTT, 72 h, 3 repetitions; read-out: IC50 ± SD MCF-7

Question: With N.N.[Cl][Pt][Cl] [Cisplatin, reference compound] as the molecule, how does the IC50 read?
Answer: 9.9 ± 0.14 µM

Same assay, conditions: cytotoxic activity compared with Erlotinib

Question: Which “times more potent than Erlotinib in MCF-7 cell line” value does the source give for CCCCSc1nc2ccc(Br)cc2c(=O)n1-c1ccccc1 [8a, 6-bromo-2-(butylthio)-3-phenylquinazolin-4(3 H )-one] here?
Answer: about 2 times

System: MRC-5 normal cell line
Test: MTT cytotoxic assay, normal cell line MRC-5
Format: cell-based
Conditions: 3 repetitions, read-out: IC50 ± SD MRC-5

Question: With N.N.[Cl][Pt][Cl] [Cisplatin, reference compound] as the molecule, how does the IC50 read?
Answer: 45.2 ± 2.5 µM

Same assay, conditions: Homo sapiens, MRC5, 3 repetitions, read-out: IC50 ± SD MRC-5

Question: With CCCCSc1nc2ccc(Br)cc2c(=O)n1-c1ccccc1 [8a, 6-bromo-2-(butylthio)-3-phenylquinazolin-4(3 H )-one] as the molecule, how does the IC50 read?
Answer: 84.2 ± 1.72 µM

Question: With CCCCCSc1nc2ccc(Br)cc2c(=O)n1-c1ccccc1 [8b, 6-bromo-2-(pentylthio)-3-phenylquinazolin-4(3 H )-one] as the molecule, how does the IC50 read?
Answer: 76.4 ± 2.62 µM

Question: Which IC50 does the source give for O=c1c2cc(Br)ccc2nc(SCc2ccccc2)n1-c1ccccc1 [8c, 2-(benzylthio)-6-bromo-3-phenylquinazolin-4(3 H )-one] here?
Answer: > 100 µM

Question: Which IC50 does the source give for Cc1cccc(CSc2nc3ccc(Br)cc3c(=O)n2-c2ccccc2)c1 [8d, 6-bromo-2-((3-methylbenzyl)thio)-3-phenylquinazolin-4(3 H )-one] here?
Answer: > 100 µM

Question: With Cc1ccc(CSc2nc3ccc(Br)cc3c(=O)n2-c2ccccc2)cc1 [8e, 6-bromo-2-((4-methylbenzyl)thio)-3-phenylquinazolin-4(3 H )-one] as the molecule, how does the IC50 read?
Answer: > 100 µM

Question: For O=c1c2cc(Br)ccc2nc(SCc2ccc(Cl)cc2)n1-c1ccccc1 [8f, 6-bromo-2-((4-chlorobenzyl)thio)-3-phenylquinazolin-4(3 H )-one], which IC50 is on record?
Answer: > 100 µM

Question: With O=c1c2cc(Br)ccc2nc(SCc2ccc(Br)cc2)n1-c1ccccc1 [8g, 6-bromo-2-((4-bromobenzyl)thio)-3-phenylquinazolin-4(3 H )-one] as the molecule, how does the IC50 read?
Answer: > 100 µM

Question: With O=c1c2cc(Br)ccc2nc(SCc2ccc([N+](=O)[O-])cc2)n1-c1ccccc1 [8h, 6-bromo-2-((4-nitrobenzyl)thio)-3-phenylquinazolin-4(3 H )-one] as the molecule, how does the IC50 read?
Answer: > 100 µM

Question: With COc1cccc2c1C(=O)c1c(O)c3c(c(O)c1C2=O)C[C@@](O)(C(=O)CO)C[C@@H]3O[C@H]1C[C@H](N)[C@H](O)[C@H](C)O1 [Doxorubicin, reference compound] as the molecule, how does the IC50 read?
Answer: 0.52 ± 0.07 µM

Question: For C#Cc1cccc(Nc2ncnc3cc(OCCOC)c(OCCOC)cc23)c1 [Erlotinib, reference compound], which IC50 is on record?
Answer: 22.9 ± 3.1 µM

System: SW480 (Colorectal carcinoma) cell line
Test: MTT cytotoxic assay, SW480
Format: cell-based
Conditions: Homo sapiens, 72 h, 3 repetitions, read-out: IC50 ± SD SW480
Description: The antiproliferative activity of all the synthesized compounds (8a-8 h) was done by MTT (standard 3-(4,5-dimethylthiazol-yl)-2,5-diphenyl-tetrazolium bromide) assay according to our previous protocols. MCF-7 (breast carcinoma) and SW480 (Colorectal carcinoma) cell lines were choose and purchased from the National Cell Bank of Iran (NCBI, Pasteur Institute, Tehran, Iran). RPMI 1640 culture media with 10% fetal bovine serum (FBS) and 1% penicillin-streptomycin (Gibco, USA) were applied as culture. Trypsin/EDTA 0.5% solution (Gibco/USA) was used to harvest cells and then, the cells were seeded at a density of 1 × 10^4 cells per well in 96-well microplates. Five different concentrations of the derivatives and Cisplatin as the positive control (1 to 200 µM) were used for treatment in triplicate times. Three untreated wells were applied as the negative control. After 72 h, the media was changed by 100 µL fresh MTT solution and incubated for 4 h at 37 °C in the incubator to achieve formazan purple crystals. Finally, the media was removed and 150 µL of DMSO was added and incubated at 37 °C in the dark for 10 min to dissolve the crystals. A Microplate ELISA reader was applied to read the absorbance of individual wells at 490 nm. Analysis of the data was obtained by Excel 2016 and Curve Expert 1.4. The data was expressed as the mean ± SD for each analysis. GraphPad Prism software was used to perform one-way ANOVA statistical analyses, followed by Tukey’s multiple comparison test.

Question: With CCCCSc1nc2ccc(Br)cc2c(=O)n1-c1ccccc1 [8a, 6-bromo-2-(butylthio)-3-phenylquinazolin-4(3 H )-one] as the molecule, how does the IC50 read?
Answer: 17.9 ± 0.92 µM

Question: Which IC50 does the source give for CCCCCSc1nc2ccc(Br)cc2c(=O)n1-c1ccccc1 [8b, 6-bromo-2-(pentylthio)-3-phenylquinazolin-4(3 H )-one] here?
Answer: 56.5 ± 2.83 µM

Question: With O=c1c2cc(Br)ccc2nc(SCc2ccccc2)n1-c1ccccc1 [8c, 2-(benzylthio)-6-bromo-3-phenylquinazolin-4(3 H )-one] as the molecule, how does the IC50 read?
Answer: 170.1 ± 1.34 µM

Question: With Cc1cccc(CSc2nc3ccc(Br)cc3c(=O)n2-c2ccccc2)c1 [8d, 6-bromo-2-((3-methylbenzyl)thio)-3-phenylquinazolin-4(3 H )-one] as the molecule, how does the IC50 read?
Answer: 72.5 ± 2.9 µM

Question: With Cc1ccc(CSc2nc3ccc(Br)cc3c(=O)n2-c2ccccc2)cc1 [8e, 6-bromo-2-((4-methylbenzyl)thio)-3-phenylquinazolin-4(3 H )-one] as the molecule, how does the IC50 read?
Answer: 63.1 ± 1.63 µM

Question: With O=c1c2cc(Br)ccc2nc(SCc2ccc(Cl)cc2)n1-c1ccccc1 [8f, 6-bromo-2-((4-chlorobenzyl)thio)-3-phenylquinazolin-4(3 H )-one] as the molecule, how does the IC50 read?
Answer: 72.2 ± 1.41 µM

Question: With O=c1c2cc(Br)ccc2nc(SCc2ccc(Br)cc2)n1-c1ccccc1 [8g, 6-bromo-2-((4-bromobenzyl)thio)-3-phenylquinazolin-4(3 H )-one] as the molecule, how does the IC50 read?
Answer: 68.4 ± 2.62 µM

Question: With O=c1c2cc(Br)ccc2nc(SCc2ccc([N+](=O)[O-])cc2)n1-c1ccccc1 [8h, 6-bromo-2-((4-nitrobenzyl)thio)-3-phenylquinazolin-4(3 H )-one] as the molecule, how does the IC50 read?
Answer: 65.4 ± 2.8 µM

Question: For COc1cccc2c1C(=O)c1c(O)c3c(c(O)c1C2=O)C[C@@](O)(C(=O)CO)C[C@@H]3O[C@H]1C[C@H](N)[C@H](O)[C@H](C)O1 [Doxorubicin, reference compound], which IC50 is on record?
Answer: 3.67 ± 0.24 µM

Question: Which IC50 does the source give for C#Cc1cccc(Nc2ncnc3cc(OCCOC)c(OCCOC)cc23)c1 [Erlotinib, reference compound] here?
Answer: 11.2 ± 0.38 µM

System: not given
Test: not given
Conditions: not given

Question: Which melting point does the source give for CCCCSc1nc2ccc(Br)cc2c(=O)n1-c1ccccc1 [8a, 6-bromo-2-(butylthio)-3-phenylquinazolin-4(3 H )-one] here?
Answer: 128 to 130 °C

Question: For CCCCCSc1nc2ccc(Br)cc2c(=O)n1-c1ccccc1 [8b, 6-bromo-2-(pentylthio)-3-phenylquinazolin-4(3 H )-one], which melting point is on record?
Answer: 99 to 101 °C

Question: With O=c1c2cc(Br)ccc2nc(SCc2ccccc2)n1-c1ccccc1 [8c, 2-(benzylthio)-6-bromo-3-phenylquinazolin-4(3 H )-one] as the molecule, how does the melting point read?
Answer: 140 to 142 °C

Question: With Cc1cccc(CSc2nc3ccc(Br)cc3c(=O)n2-c2ccccc2)c1 [8d, 6-bromo-2-((3-methylbenzyl)thio)-3-phenylquinazolin-4(3 H )-one] as the molecule, how does the melting point read?
Answer: 101 to 103 °C

Question: Which melting point does the source give for Cc1ccc(CSc2nc3ccc(Br)cc3c(=O)n2-c2ccccc2)cc1 [8e, 6-bromo-2-((4-methylbenzyl)thio)-3-phenylquinazolin-4(3 H )-one] here?
Answer: 164 to 166 °C

Question: For O=c1c2cc(Br)ccc2nc(SCc2ccc(Cl)cc2)n1-c1ccccc1 [8f, 6-bromo-2-((4-chlorobenzyl)thio)-3-phenylquinazolin-4(3 H )-one], which melting point is on record?
Answer: 145 to 147 °C

Question: For O=c1c2cc(Br)ccc2nc(SCc2ccc(Br)cc2)n1-c1ccccc1 [8g, 6-bromo-2-((4-bromobenzyl)thio)-3-phenylquinazolin-4(3 H )-one], which melting point is on record?
Answer: 175 to 177 °C

Question: Which melting point does the source give for O=c1c2cc(Br)ccc2nc(SCc2ccc([N+](=O)[O-])cc2)n1-c1ccccc1 [8h, 6-bromo-2-((4-nitrobenzyl)thio)-3-phenylquinazolin-4(3 H )-one] here?
Answer: 231 to 233 °C

— PMC11225515, “6-Bromo quinazoline derivatives as cytotoxic agents: design, synthesis, molecular docking and MD simulation” (BMC Chemistry, 2024)
